Consider 48 compounds from ChEMBL document CHEMBL1134554, “Design, synthesis, and structure-activity relationships of macrocyclic hydroxamic acids that inhibit tumor necrosis factor alpha release in vitro and in vivo” (J Med Chem, 2001).

As a reminder, the IC50 is the point on the concentration scale where inhibition reaches its midpoint.

The target in the test is Disintegrin and metalloproteinase domain-containing protein 17 (Homo sapiens, UniProt P78536).
Sequence of Disintegrin and metalloproteinase domain-containing protein 17 (P78536 whole entry, the tested form may be a part): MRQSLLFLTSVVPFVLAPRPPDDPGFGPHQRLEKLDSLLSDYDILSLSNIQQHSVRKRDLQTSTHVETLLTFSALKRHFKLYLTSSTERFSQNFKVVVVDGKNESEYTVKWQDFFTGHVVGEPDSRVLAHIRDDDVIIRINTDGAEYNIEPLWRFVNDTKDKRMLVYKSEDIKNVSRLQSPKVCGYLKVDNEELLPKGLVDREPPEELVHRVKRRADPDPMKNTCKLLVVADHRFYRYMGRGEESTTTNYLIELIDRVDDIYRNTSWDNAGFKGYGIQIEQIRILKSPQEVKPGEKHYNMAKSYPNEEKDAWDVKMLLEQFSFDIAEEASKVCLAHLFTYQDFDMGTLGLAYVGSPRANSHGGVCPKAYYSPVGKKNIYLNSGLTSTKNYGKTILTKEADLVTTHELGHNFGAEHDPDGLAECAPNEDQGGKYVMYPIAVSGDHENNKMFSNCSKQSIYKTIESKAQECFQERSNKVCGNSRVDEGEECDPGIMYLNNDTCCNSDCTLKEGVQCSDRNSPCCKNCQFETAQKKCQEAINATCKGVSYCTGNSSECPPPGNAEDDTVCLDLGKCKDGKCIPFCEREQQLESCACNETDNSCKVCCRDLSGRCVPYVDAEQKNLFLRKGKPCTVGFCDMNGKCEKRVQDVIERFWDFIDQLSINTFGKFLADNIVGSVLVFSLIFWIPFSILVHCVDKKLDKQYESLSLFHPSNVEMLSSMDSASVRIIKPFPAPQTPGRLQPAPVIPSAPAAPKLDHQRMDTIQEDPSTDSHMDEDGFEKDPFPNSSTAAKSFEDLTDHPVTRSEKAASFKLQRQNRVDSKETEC

Description: Inhibition of LPS-stimulated TNF-alpha release in human whole blood

The compound `CC(C)C[C@H]1C(=O)N[C@H](C(=O)N[C@H](C)C(=O)N2CCOCC2)CCCCNC(=O)OCCC[C@@H]1C(=O)NO` returned a 50% inhibitory concentration (IC50) of 150 nM.
`CC(C)C[C@H]1C(=O)N[C@H](C(=O)NCC(=O)N2CCCC2)CCCCN(C)C(=O)OCCC[C@@H]1C(=O)NO` showed an IC50 of 400 nM.
On to `COC(=O)c1csc(NC(=O)[C@@H]2CCCCNC(=O)OCCC[C@H](C(=O)NO)[C@@H](CC(C)C)C(=O)N2)n1`, for which the IC50 worked out at 83 nM.
Take `CNC(=O)[C@@H](CC(C)C)NC(=O)[C@@H]1CCCCNC(=O)OCCC[C@H](C(=O)NO)[C@@H](CC(C)C)C(=O)N1`: the IC50 was determined as 100 nM.
Regarding `CC(C)C[C@H]1C(=O)N[C@H](C(=O)NCC(=O)N2CCC(O)CC2)Cc2ccc(cc2)OCCC[C@@H]1C(=O)NO`, 200 nM corresponded to half-maximal inhibition (IC50).
With `CC(C)C[C@H]1C(=O)N[C@H](C(=O)NCC(=O)Nc2ccccn2)CCCCN(C)C(=O)OCCC[C@@H]1C(=O)NO`, the IC50 is 200 nM.
Regarding `CCCCCC[C@H]1C(=O)N[C@H](C(=O)NCc2ccccc2)Cc2ccc(cc2)OCCC[C@@H]1C(=O)NO`, the IC50 was found to be 2200 nM.
In turn, `CC(C)C[C@H]1C(=O)N[C@H](C(=O)N[C@@H]2c3ccccc3C[C@@H]2O)CCCCNC(=O)OCCC[C@@H]1C(=O)NO` gave a half-inhibitory concentration (IC50) of 110 nM.
As to `CC(C)C[C@H]1C(=O)N[C@H](C(=O)NCC(=O)N2CCCC(C)(C)C2)Cc2ccc(cc2)OCCC[C@@H]1C(=O)NO`, half-maximal inhibition (IC50) required 460 nM.
Regarding `CC(C)C[C@H]1C(=O)N[C@H](C(=O)Nc2ccccc2)CCCCNC(=O)OCCC[C@@H]1C(=O)NO`, the IC50 turned out to be 280 nM.
To `CNC(=O)[C@@H]1CCCCNC(=O)CO[C@H](C(=O)NO)[C@@H](CC(C)C)C(=O)N1` belongs 6500 nM; to `CC(C)C[C@H]1C(=O)N[C@H](C(=O)NCC(=O)N2CC(C)OC(C)C2)CCCCNC(=O)OCCC[C@@H]1C(=O)NO` (stereo partly drawn), 150 nM.
In the case of `CNC(=O)CNC(=O)[C@@H]1CCCCN(C)C(=O)OCCC[C@H](C(=O)NO)[C@@H](CC(C)C)C(=O)N1`, the concentration for half-maximal inhibition (IC50) worked out at 420 nM.
For `CC(C)C[C@H]1C(=O)N[C@H](C(=O)NCCc2ccc(S(N)(=O)=O)cc2)Cc2ccc(cc2)OCCC[C@@H]1C(=O)NO`, 1000 nM corresponded to half-maximal inhibition (IC50).
In turn, `CC(C)C[C@H]1C(=O)N[C@H](C(=O)NCC(=O)Nc2ccccc2)Cc2ccc(cc2)OCCC[C@@H]1C(=O)NO` registered an IC50 of 200 nM.
With `CC(C)C[C@H]1C(=O)N[C@H](C(=O)NCC(F)(F)F)Cc2ccc(cc2)OCCC[C@@H]1C(=O)NO`, the IC50 came out at 680 nM.
`CC(C)C[C@H]1C(=O)N[C@H](C(=O)NCC(=O)N(C)C)CCCCN(C)C(=O)OCCC[C@@H]1C(=O)NO` displayed a 50% inhibitory concentration (IC50) of 300 nM.
Compound `CC(C)C[C@H]1C(=O)N[C@H](C(=O)Nc2cccnc2)CCCCN(C)C(=O)OCCC[C@@H]1C(=O)NO` gave an IC50 of 500 nM.
`CC(C)C[C@H]1C(=O)N[C@H](C(=O)NCC(=O)Nc2ccc(F)cc2F)Cc2ccc(cc2)OCCC[C@@H]1C(=O)NO` displayed an IC50 of 700 nM.
To `CC(C)C[C@H]1C(=O)N[C@H](C(=O)N[C@H](CO)C(=O)N2CCOCC2)CCCCNC(=O)OCCC[C@@H]1C(=O)NO` belongs 100 nM.
`CC(C)C[C@H]1C(=O)N[C@H](C(=O)NCC(=O)N2CCCCC2)Cc2ccc(cc2)OCCC[C@@H]1C(=O)NO`: the midpoint of inhibition, the IC50, lay at 140 nM.
In turn, `CC(C)C[C@H]1C(=O)N[C@H](C(=O)NCC(=O)Nc2cccc3c2Cc2ccccc2-3)Cc2ccc(cc2)OCCC[C@@H]1C(=O)NO` yielded a half-inhibitory concentration (IC50) of 930 nM.
Compound `CNC(=O)CNC(=O)[C@@H]1CCCCNC(=O)OCCC[C@H](C(=O)NO)[C@@H](CC(C)C)C(=O)N1` showed a half-maximal inhibitory concentration (IC50) of 120 nM.
Take `CC(C)C[C@H]1C(=O)N[C@H](C(=O)NCC(F)(F)F)CCCCNC(=O)OCCC[C@@H]1C(=O)NO`: it took 2000 nM to reach half-maximal inhibition (IC50).
`CC(C)C[C@H]1C(=O)N[C@H](C(=O)Nc2ccccn2)CCCCN(C)C(=O)OCCC[C@@H]1C(=O)NO` came in with an IC50 of 200 nM.
Turning to `CC(C)C[C@H]1C(=O)N[C@H](C(=O)NCc2ccccc2)CCCCNC(=O)OCCC[C@@H]1C(=O)NO`, the 50% inhibitory concentration (IC50) was 740 nM.
`CNC(=O)[C@@H](C)NC(=O)[C@@H]1CCCCNC(=O)OCCC[C@H](C(=O)NO)[C@@H](CC(C)C)C(=O)N1` yielded an IC50 of 270 nM.
Compound `CC(C)C[C@H]1C(=O)N[C@H](C(=O)NCC(=O)N2CCC(O)CC2)CCCCNC(=O)OCCC[C@@H]1C(=O)NO` displayed a half-inhibitory concentration (IC50) of 280 nM.
To `CC(C)C[C@H]1C(=O)N[C@H](C(=O)NCc2cccnc2)CCCCNC(=O)OCCC[C@@H]1C(=O)NO` belongs 500 nM; to `CC(C)C[C@H]1C(=O)N[C@H](C(=O)NCc2ccccn2)CCCCNC(=O)OCCC[C@@H]1C(=O)NO`, 700 nM.
Regarding `CNC(=O)[C@H](C)NC(=O)[C@@H]1Cc2ccc(cc2)OCCC[C@H](C(=O)NO)[C@@H](CC(C)C)C(=O)N1`, the IC50 was determined as 4490 nM.
`CC(C)C[C@H]1C(=O)N[C@H](C(=O)NCC(=O)N2CCN(C)CC2)CCCCN(C)C(=O)OCCC[C@@H]1C(=O)NO` displayed an IC50 of 120 nM.
To `CNC(=O)[C@@H]1CCCCN(C(=O)OC(C)(C)C)CCC[C@H](C(=O)NO)[C@@H](CC(C)C)C(=O)N1` belongs 1400 nM.
`CC(C)C[C@H]1C(=O)N[C@H](C(=O)NCCC(=O)N2CCOCC2)CCCCNC(=O)OCCC[C@@H]1C(=O)NO`: half-maximal inhibition (IC50) was put at 170 nM.
In the case of `CCCCCC[C@H]1C(=O)N[C@H](C(=O)NCC(=O)NC)Cc2ccc(cc2)OCCC[C@@H]1C(=O)NO`, half-maximal inhibition (IC50) required 550 nM.
The figure for `CC(C)C[C@H]1C(=O)N[C@H](C(=O)Nc2ccc(N3CCOCC3)cc2)CCCCNC(=O)OCCC[C@@H]1C(=O)NO` is 190 nM; for `CC(C)C[C@H]1C(=O)N[C@H](C(=O)Nc2nc(CC(=O)N3CCOCC3)cs2)CCCCNC(=O)OCCC[C@@H]1C(=O)NO` it is 120 nM.
Compound `CC(C)C[C@H]1C(=O)N[C@H](C(=O)NCC(=O)N2CC(C)CC(C)C2)Cc2ccc(cc2)OCCC[C@@H]1C(=O)NO` (stereo partly drawn) displayed a half-inhibitory concentration (IC50) of 270 nM.
The figure for `CNC(=O)[C@H](NC(=O)[C@@H]1Cc2ccc(cc2)OCCC[C@H](C(=O)NO)[C@@H](CC(C)C)C(=O)N1)C(C)C` is 1510 nM; for `CNC(=O)[C@@H]1Cc2ccc(cc2)OCCC[C@H](C(=O)NO)[C@@H](CC(C)C)C(=O)N1` it is 1200 nM.
`CC(C)C[C@H]1C(=O)N[C@H](C(=O)NCC(=O)N2CCC(O)CC2)CCCCN(C)C(=O)OCCC[C@@H]1C(=O)NO` yielded a 50% inhibitory concentration (IC50) of 300 nM.
Compound `CNC(=O)[C@@H]1CCCCN(S(=O)(=O)c2ccccc2)CCC[C@H](C(=O)NO)[C@@H](CC(C)C)C(=O)N1` gave a 50% inhibitory concentration (IC50) of 1300 nM.
To `CC(C)C[C@H]1C(=O)N[C@H](C(=O)NC(C)C)Cc2ccc(cc2)OCCC[C@@H]1C(=O)NO` belongs 700 nM; to `CNC(=O)[C@@H](CCCCN)NC(=O)[C@@H]1Cc2ccc(cc2)OCCC[C@H](C(=O)NO)[C@@H](CC(C)C)C(=O)N1`, 830 nM; to `CNC(=O)[C@@H](C)NC(=O)[C@@H]1Cc2ccc(cc2)OCCC[C@H](C(=O)NO)[C@@H](CC(C)C)C(=O)N1`, 700 nM.
The compound `CC(C)C[C@H]1C(=O)N[C@H](C(=O)NCC(=O)N2CCCC(C(=O)O)C2)CCCCNC(=O)OCCC[C@@H]1C(=O)NO` (stereo partly drawn) showed an IC50 of 580 nM.
As to `COc1ccc2c(CCNC(=O)[C@@H]3CCCCNC(=O)OCCC[C@H](C(=O)NO)[C@@H](CC(C)C)C(=O)N3)c[nH]c2c1`, 94 nM corresponded to half-maximal inhibition (IC50).
Turning to `CC(C)C[C@H]1C(=O)N[C@H](C(=O)NCC(=O)N2CCN(c3ccccn3)CC2)CCCCNC(=O)OCCC[C@@H]1C(=O)NO`, the IC50 is 70 nM.
